# Earlier results in PubChem BioAssay AID1259409 (Chemical Carcinogenesis Research Information System (CCRIS), 2018).
# Tested on: rodent chemically induced tumor inhibition, incidence and multiplicity
# Experiment: CCRIS tumor inhibitor studies
# Conditions: Route [Inhibitor]: ORAL, Species: RAT, Promoter: NONE USED
compound,measurement,setting,value
CC1=C(/C=C/C(C)=C/C=C/C(C)=C/C(=O)NCCO)C(C)(C)CCC1,"tumour outcome (control, treated, inhibition, significance)","Carcinogen: L-AZASERINE, 115-02-6, Dose [Inhibitor]: 2 MMOL/KG DIET DAILY FOR 336 D OUT OF 358 D STARTING 1 WK AFTER COMPLETION OF CARCINOGEN TREATMENT (STUDY DURATION: 66 W, Strain/Sex: WISTAR-LEWIS/FEMALE, Target Tissue: Type of Lesion: PANCREAS: ADENOMA, Dose [Carcinogen]: 10 MG/KG BW 1/WK FOR 15 WK","50%, 13%, 74%, not significant"
same,"tumour outcome (control, treated, inhibition, significance)","Carcinogen: L-AZASERINE, 115-02-6, Dose [Inhibitor]: 2 MMOL/KG DIET DAILY FOR 336 D OUT OF 358 D STARTING 1 WK AFTER COMPLETION OF CARCINOGEN TREATMENT (STUDY DURATION: 66 W, Strain/Sex: WISTAR-LEWIS/FEMALE, Target Tissue: Type of Lesion: PANCREAS: CARCINOMA IN SITU, Dose [Carcinogen]: 10 MG/KG BW 1/WK FOR 15 WK","8%, 13%, -63%, not significant"
same,"tumour outcome (control, treated, inhibition, significance)","Carcinogen: L-AZASERINE, 115-02-6, Dose [Inhibitor]: 2 MMOL/KG DIET DAILY FOR 336 D OUT OF 358 D STARTING 1 WK AFTER COMPLETION OF CARCINOGEN TREATMENT (STUDY DURATION: 66 W, Strain/Sex: WISTAR-LEWIS/FEMALE, Target Tissue: Type of Lesion: PANCREAS: CARCINOMA, Dose [Carcinogen]: 10 MG/KG BW 1/WK FOR 15 WK STARTING 15 WK PRIOR TO AGENT TREATMENT","?/24 (13%), ?/24 (0%), 100%, not significant"
same,"tumour outcome (control, treated, inhibition, significance)","Carcinogen: L-AZASERINE, 115-02-6, Dose [Inhibitor]: 2 MMOL/KG DIET DAILY FOR 336 D OUT OF 358 D STARTING 1 WK AFTER COMPLETION OF CARCINOGEN TREATMENT (STUDY DURATION: 66 W, Strain/Sex: WISTAR-LEWIS/MALE, Target Tissue: Type of Lesion: PANCREAS: ADENOMA, Dose [Carcinogen]: 10 MG/KG BW 1/WK FOR 15 WK","25%, 28%, -12%, not significant"
same,"tumour outcome (control, treated, inhibition, significance)","Carcinogen: L-AZASERINE, 115-02-6, Dose [Inhibitor]: 2 MMOL/KG DIET DAILY FOR 336 D OUT OF 358 D STARTING 1 WK AFTER COMPLETION OF CARCINOGEN TREATMENT (STUDY DURATION: 66 W, Strain/Sex: WISTAR-LEWIS/MALE, Target Tissue: Type of Lesion: PANCREAS: CARCINOMA IN SITU, Dose [Carcinogen]: 10 MG/KG BW 1/WK FOR 15 WK","29%, 44%, -52%, not significant"
same,"tumour outcome (control, treated, inhibition, significance)","Carcinogen: L-AZASERINE, 115-02-6, Dose [Inhibitor]: 2 MMOL/KG DIET DAILY FOR 336 D OUT OF 358 D STARTING 1 WK AFTER COMPLETION OF CARCINOGEN TREATMENT (STUDY DURATION: 66 W, Strain/Sex: WISTAR-LEWIS/MALE, Target Tissue: Type of Lesion: PANCREAS: CARCINOMA, Dose [Carcinogen]: 10 MG/KG BW 1/WK FOR 15 WK","46%, 4%, 91%, p<0.05"
same,"tumour outcome (control, treated, inhibition, significance)","Carcinogen: L-AZASERINE, 115-02-6, Dose [Inhibitor]: 2 MMOL/KG DIET DAILY FOR 336 D OUT OF 358 D STARTING 1 WK AFTER COMPLETION OF CARCINOGEN TREATMENT (STUDY DURATION: 66 W, Strain/Sex: WISTAR-LEWIS/MALE, Target Tissue: Type of Lesion: PANCREAS: NEOPLASM, Dose [Carcinogen]: 10 MG/KG BW 1/WK FOR 15 WK","100%, 76%, 24%, not significant"
same,"tumour outcome (control, treated, inhibition, significance)","Carcinogen: N-(4-(5-NITRO-2-FURYL)-2-THIAZOLYL)FORMAMIDE, 24554-26-5, Dose [Inhibitor]: 343 MG/KG DIET DAILY FOR 39 WK STARTING ONE WK FOLLOWING THE TERMINATION OF CARCINOGEN ADMINISTRATION (STUDY DURATION: 5, Strain/Sex: F344/FEMALE, Target Tissue: Type of Lesion: URINARY BLADDER: CARCINOMA, Dose [Carcinogen]: 2 G/KG IN DIET DAILY FOR 10 WK","105/200 (53%), 67/100 (67%), -26%, p 0.0167"
same,"tumour outcome (control, treated, inhibition, significance)","Carcinogen: N-(4-(5-NITRO-2-FURYL)-2-THIAZOLYL)FORMAMIDE, 24554-26-5, Dose [Inhibitor]: 343 MG/KG/D IN DIET FOR 39 WK STARTING 1 WK POST CARCINOGEN TREATMENT (STUDY DURATION: 50 WK), Strain/Sex: F344/FEMALE, Target Tissue: Type of Lesion: URINARY BLADDER: CARCINOMA, Dose [Carcinogen]: 2 G/KG/D IN DIET FOR 10 WK","105/200 (53%), 67/100 (67%), -26%, p 0.0167"
same,"tumour outcome (control, treated, inhibition, significance)","Carcinogen: N-(4-(5-NITRO-2-FURYL)-2-THIAZOLYL)FORMAMIDE, 24554-26-5, Dose [Inhibitor]: 343 MG/KG/D IN DIET FOR 39 WK STARTING 1 WK POST CARCINOGEN TREATMENT (STUDY DURATION: 50 WK), Strain/Sex: F344/FEMALE, Target Tissue: Type of Lesion: URINARY BLADDER: PAPILLOMA, Dose [Carcinogen]: 2 G/KG/D IN DIET FOR 10 WK","15/200 (7.5%), 24/100 (24%), -220%, p 0.00006"
same,"tumour outcome (control, treated, inhibition, significance)","Carcinogen: N-(4-(5-NITRO-2-FURYL)-2-THIAZOLYL)FORMAMIDE, 24554-26-5, Dose [Inhibitor]: 686 MG/KG DIET DAILY FOR 39 WK STARTING ONE WK FOLLOWING THE TERMINATION OF CARCINOGEN ADMINISTRATION (STUDY DURATION: 5, Strain/Sex: F344/FEMALE, Target Tissue: Type of Lesion: URINARY BLADDER: CARCINOMA, Dose [Carcinogen]: 2 G/KG IN DIET DAILY FOR 10 WK","105/200 (53%), 49/100 (49%), 8%, p 0.5657"
same,"tumour outcome (control, treated, inhibition, significance)","Carcinogen: N-(4-(5-NITRO-2-FURYL)-2-THIAZOLYL)FORMAMIDE, 24554-26-5, Dose [Inhibitor]: 686 MG/KG DIET DAILY FOR 39 WK STARTING ONE WK FOLLOWING THE TERMINATION OF CARCINOGEN ADMINISTRATION (STUDY DURATION: 5, Strain/Sex: F344/FEMALE, Target Tissue: Type of Lesion: URINARY BLADDER: PAPILLOMA, Dose [Carcinogen]: 2 G/KG IN DIET DAILY FOR 10 WK","15/200 (8%), 17/100 (17%), -113%, p 0.012"
